The supplement of paper PMC10307832

Each cell line was assayed with CCn1c(-c2nonc2N)nc2c(C#CC(C)(C)O)ncc(OC[C@H]3CCCNC3)c21 + COc1cccc2cc(-c3nc([C@H]4CC[C@H](C(=O)O)CC4)n4ncnc(N)c34)[nH]c12 [OSI-027] (partner 0.5 µM) (assay: relative viability (nuclei count vs DMSO), 5 days (fraction); higher = more cells survive). Details: first compound 1 µM.
How it was run: (§1)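 One day after seeding in 1536-well plates, lung cancer cell lines were dosed by pin tool. Dosing was either single-drug or a fixed anchor-drug dose plus five library-drug doses (not always all listed) in √10 steps. After 5 days, nuclei were stained in one fix-and-stain step and counted on 4× images, and relative viability is the nuclei count of treated wells over that of vehicle wells, given as the median of duplicate plates.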

Cell Line	relative viability
HOP-62	0.78
HCC-44	0.499
SW 900	0.562
LU99A	0.282
BEN	0.299
HARA	0.459
NCI-H1648	0.246
HCC-78	0.341
NCI-H322M	0.483
NCI-H441	0.437
NCI-H1395	0.555
NCI-H1793	0.252

These cell lines were tested with CCOC1=CC=CC=C1N=NC2=C(NN(C2=O)C3=NC(=CS3)C4=CC=CC=C4)C [BAM7] + C[C@]1(O)C[C@@H](c2nc(-c3ccc4ccc(-c5ccccc5)nc4c3)c3c(N)nccn32)C1 [Linsitinib] (partner 1 µM) in the same assay as above. Details: first compound 0.5 µM.
How it was run: as §1

Cell Line	relative viability
NCI-H727	0.273
EBC-1	0.856
NCI-H1703	0.791
NCI-H1993	0.688
SW 1573	0.838
NCI-H838	1.12
LCLC-103H	1.06
NCI-H520	0.916
NCI-H2126	0.7
EMC-BAC-2	0.904
NCI-H2085	0.968
Calu-6	1.1
HCC-366	0.67
NCI-H1666	0.835
NCI-H596	1.05
LK-2	0.675
NCI-H2087	0.974
SK-MES-1	1.11

Cell Line	relative viability
H3255	0.901
COR-L23	0.979
COR-L 105	1.14
IA-LM	0.755
LOU-NH91	0.912
NCI-H2405	1.02
HOP-62	1.09
HCC-44	0.717
A549	0.658
LU99A	0.565
BEN	0.914
HARA	1.08
HCC-78	0.544
NCI-H322M	0.892
NCI-H441	0.547
NCI-H1395	1.02
NCI-H1299	1.02
NCI-H1793	0.971

Same assay, conditions: first compound 5 µM

Cell Line	relative viability
NCI-H727	0.416
EBC-1	1.07
NCI-H1703	0.856
NCI-H1993	0.724
SW 1573	0.742
NCI-H838	1.06
LCLC-103H	1.22
NCI-H520	1.03
NCI-H2126	0.63
EMC-BAC-2	0.838
NCI-H2085	1.03
Calu-6	1.11
HCC-366	0.501
NCI-H1666	0.867
NCI-H596	1.15
LK-2	0.708
NCI-H2087	1.27
SK-MES-1	1.05

Cell Line	relative viability
H3255	1.02
COR-L23	0.989
COR-L 105	0.801
IA-LM	0.705
LOU-NH91	0.936
NCI-H2405	0.881
HOP-62	1.23
HCC-44	0.67
A549	0.617
LU99A	0.542
BEN	0.97
HARA	1.14
HCC-78	0.393
NCI-H322M	0.805
NCI-H441	0.597
NCI-H1395	1.07
NCI-H1299	1.14
NCI-H1793	1.15

Same assay, conditions: first compound 15.81 µM

Cell Line	relative viability
NCI-H727	0.314
EBC-1	0.876
NCI-H1703	0.75
NCI-H1993	0.701
SW 1573	0.819
NCI-H838	0.982
LCLC-103H	1.15
NCI-H520	1.08
NCI-H2126	0.706
EMC-BAC-2	0.786
NCI-H2085	0.821
Calu-6	0.913
HCC-366	0.583
NCI-H1666	0.734
NCI-H596	1.02
LK-2	0.629
NCI-H2087	0.893
SK-MES-1	1.03

Cell Line	relative viability
H3255	0.606
COR-L23	0.852
COR-L 105	1
IA-LM	0.545
LOU-NH91	0.893
NCI-H2405	0.865
HOP-62	0.904
HCC-44	0.62
A549	0.57
LU99A	0.491
BEN	0.876
HARA	0.864
HCC-78	0.376
NCI-H322M	0.949
NCI-H441	0.648
NCI-H1395	1.03
NCI-H1299	1.02
NCI-H1793	0.653

Same assay, conditions: first compound 50 µM

Cell Line	relative viability
NCI-H727	0.245
EBC-1	0.85
NCI-H1703	0.791
NCI-H1993	0.742
SW 1573	0.896
NCI-H838	0.994
LCLC-103H	0.933
NCI-H520	0.87
NCI-H2126	0.704
EMC-BAC-2	0.823
NCI-H2085	0.911
Calu-6	1.02
HCC-366	0.677
NCI-H1666	0.854
NCI-H596	1.14
LK-2	0.59
NCI-H2087	0.903
SK-MES-1	1.07

Cell Line	relative viability
H3255	0.848
COR-L23	0.852
COR-L 105	0.97
IA-LM	0.672
LOU-NH91	0.996
NCI-H2405	1.09
HOP-62	0.756
HCC-44	0.689
A549	0.559
LU99A	0.6
BEN	0.898
HARA	1.08
HCC-78	0.585
NCI-H322M	0.845
NCI-H441	0.399
NCI-H1395	1.2
NCI-H1299	0.936
NCI-H1793	0.789
